From patent publication US4211773A, “5-Substituted 1-(2'-Deoxy-2'-substituted-β-D-arabinofuranosyl)pyrimidine nucleosides” (Sloan Kettering Institute for Cancer Research, priority 1978, dated 1980)
Converted amounts (≈) assume the structure as drawn. Read-outs that look alike come from different tables or passages of the source.

What was measured:
Solubility in saline = type: physicochemical; settings: read-out: readily soluble at concentrations of
Description: (§1) The effective doses for 1-(2-deoxy-2-fluoro-β-D-arabinofuranosyl)-5-iodocytosine are given below. 1-(2-deoxy-2-fluoro-β-D-arabinofuranosyl)-5-iodocytosine is diluted in physiological saline, filter sterilized, and inoculated. This compound is readily soluble at concentrations of 25 mg/ml in saline. In mouse studies, the drug is inoculated by the intraperitoneal route.

[1] = system: K 562 cells, a cell line of chronic myologenous leukemia cells; assay: Suppression of replication of K 562 cells in vitro; type: cell-based; settings: Homo sapiens, K562, read-out: concentration found to suppress replication of K 562 cells
Description: Since 1-(2-deoxy-2-fluoro-β-D-arabinofuranosyl)-5-iodocytosine was active against a virus which uses fetal thymidine kinase and since many tumor cells express high concentrations of fetal thymidine kinase, it was tested as a selective anti-tumor agent.

[2] = system: thymidine kinase negative strain of HSV-1 (HSV-1 TK^-); assay: Activity against thymidine kinase negative HSV-1; type: cell-based; settings: Human alphaherpesvirus 1, read-out: not affected at concentrations of up to
[3] = system: Cytomegalovirus (CMV strain AD 169); assay: Effective dose against Cytomegalovirus strain AD-169; CMV plaque formation on WI-38 cells; type: cell-based; settings: for minimal effective concentration: Human betaherpesvirus 5, CMV strain AD 169, WI-38 cells
Description: as §1

P815 = assay: Cytotoxicity, inhibition of growth of P815 cells in vitro; type: cell-based; settings: Mus musculus, 96 hrs. incubation at 37° C., read-out: Cytoxicity ID50
Description: (§2) *****Concentration required for 50% inhibition of growth of cells in
(§3) vitro after 96 hrs. incubation at 37° C.

[4] = system: Herpes Simplex Virus - type 2; assay: Inhibition of Herpes Simplex Virus type 2 replication (effective doses); type: cell-based; settings: for EC50: read-out: ED50 (the source's name)
Description: (§4) Compounds of the invention show anti-viral and anti-tumor activity. 1-(2-Deoxy-2-fluoro-β-D-arabinofuranosyl)-5-iodocytosine inhibits Herpes Simplex Virus type 1 and type 2 replication. HFEM, Patton, 2931, and F-strain HSV-1 and 333 and G-strain HSV-2 are affected at concentrations of 1-(2-deoxy-2-fluoro-β-D-arabinofuranosyl)-5-iodocytosine 0.01 μM (approximately 0.004 μg/ml).
as §1

[5] = system: Herpes Simplex Virus--Type 1 (HSV-1) strain 2931; assay: Capacity to suppress HSV-1 replication in monolayers of Vero cells; type: cell-based; settings: 24 hr, read-out: Anti-viral Activity (% reduction of HSV1 titer); for activity at 0.01 µg/mL: Human alphaherpesvirus 1, 0.01 μg/ml; for activity at 0.1 µg/mL: Human alphaherpesvirus 1, 0.1 μg/ml; for activity at 1 µg/mL: Human alphaherpesvirus 1, 1.0 μg/ml; for activity at 10 µg/mL: Human alphaherpesvirus 1, 10 μg/ml; for activity at 100 µg/mL: Human alphaherpesvirus 1, 100 μg/ml
Description: The capacity of 2'-fluoro-arabinosyl nucleosides (Formulas IV and V shown below) to suppress replication of Herpes Simplex virus-type 1 (HSV-1) in monolayers of Vero cells is shown in Table I.
Vero cell monolayers were infected with approximately 1 plaque forming unit (PFU) per cell of Herpes Simplex Virus--Type 1 (HSV-1) strain 2931 and incubated for 2 hr. Maintenance media containing the various concentrations of drugs were used to overlay the monolayers. Supernatant fluids were collected 24 hr. later and titered on Vero cell monolayers described in Lopez et al, Ann. N.Y. Acad. Sci., 284, 351 (1977). Percent inhibition over controls was calculated.

HSV-1 strain 2931 = assay: In vivo activity in A/J mice infected with HSV-1 strain 2931; settings: for mice surviving the 21 day experiment: starting 24 hours after inoculation
Description: as §1
1-(2-deoxy-2-fluoro-β-D-arabinofuranosyl)-5-iodocytosine was also shown to be active in vivo. A/J mice were inoculated with approximately 50 LD50 of HSV-1 strain 2931 intraperitoneally and then treated with 1-(2-deoxy-2-fluoro-β-D-arabinofuranosyl)-5-iodocytosine starting 24 hours later. 1-(2-deoxy-2-fluoro-β-D-arabinofuranosyl)-5-iodocytosinewas given at 10 and 1 mg/kg/da for 5 days. Untreated mice died 8 days after inoculation. Five of 10 mice treated with 10 mg/kg/day survived the 21 day experiment. Two of 10 treated with 1 mg/kg/da survival the 21 day experiment and the remainder died an average of 10 days after inoculation.

L51784 = assay: Cytotoxicity, inhibition of growth of L51784 cells in vitro; type: cell-based; settings: 96 h, read-out: Cytoxicity ID50
Description: as §2, §3

[6] = system: Herpes Simplex Virus - type 1; assay: Inhibition of Herpes Simplex Virus type 1 replication (effective doses); type: cell-based; settings: for EC50: read-out: ED50 (the source's name)
Description: as §4, §1

[7] = Toxicity to normal lymphoblastoid cells; type: cell-based; settings: read-out: not toxic at concentrations of up to
Description: Since 1-(2-deoxy-2-fluoro-β-D-arabinofuranosyl)-5-iodocytosine was not toxic to normal lymphoblastoid cells at concentrations of up to 10 μM, the compound is believed to affect tumor cells at concentrations 1/100th those needed to suppress normal cell replication. Compounds of the invention can be used as a selective treatment for tumors expressing the fetal thymidine kinase which includes most tumors.

equine herpesvirus = settings: cited from earlier work
HSV type 1 = settings: cited from earlier work
HSV type 2 = settings: cited from earlier work
anti-viral = settings: cited from earlier work
[8] = system: herpesvirus infected cells; settings: cells in which deoxycytidine deaminase is present; cited from earlier work
[9] = system: herpes simplex virus (HSV); settings: compared with corresponding deoxyuridine analogs; cited from earlier work
several DNA virus = settings: cell culture; cited from earlier work
herpes infections = settings: therapeutic trials in herpes infections; cited from earlier work

Compound | IC50 (P815) | activity at 0.01 µg/mL [5] | activity at 0.1 µg/mL [5] | activity at 1 µg/mL [5] | activity at 10 µg/mL [5] | IC50 (L51784) | further results
Nc1nc(=O)n([C@@H]2O[C@H](CO)[C@@H](O)[C@@H]2F)cc1I [IVe, 1-(2-deoxy-2-fluoro-β-D-arabinofuranosyl)-5-iodocytosine] | 14 µg/mL (≈ 37.7 µM) | 90 to 99% | 99 to 99.9% | 100% | 100% | 48 µg/mL (≈ 129 µM) | solubility (Solubility in saline): ≥ 25 mg/mL; minimal effective concentration [1]: 0.04 µg/mL; minimal effective concentration [2]: > 10 µM; EC50 ([3]; Human betaherpesvirus 5, AD169, WI-38, CMV strain AD-169, read-out: ED50 (the source's name)): 1000 nM; minimal effective concentration ([3]; read-out: concentration found to reduce CMV plaque formation): 1 µM; minimal effective concentration ([3]; read-out: concentration found to reduce CMV plaque formation (mass units)): 0.4 µg/mL; EC50 ([4]; Human alphaherpesvirus 2, HSV-2 strain 333): 50 nM; EC50 ([4]; Human alphaherpesvirus 2, HSV-2 strain G): 10 nM; minimal effective concentration ([4]; Human alphaherpesvirus 2, 333 and G-strain HSV-2, read-out: concentration at which HSV-2 strains are affected): 0.01 µM; activity at 100 µg/mL [5]: 100%; average time of death after inoculation (non-surviving mice) (HSV-1 strain 2931; 1 mg/kg/da for 5 days, intraperitoneal, remainder of mice): 10 days; mice surviving the 21 day experiment (HSV-1 strain 2931; 1 mg/kg/da for 5 days, intraperitoneal): Two of 10; mice surviving the 21 day experiment (HSV-1 strain 2931; 10 mg/kg/day for 5 days, intraperitoneal): Five of 10; in vivo activity against HSV-1 (HSV-1 strain 2931; 10 and 1 mg/kg/da for 5 days): active in vivo against HSV-1; EC50 ([6]; Human alphaherpesvirus 1, HSV-1 strain 2931): 7 nM; EC50 ([6]; Human alphaherpesvirus 1, HSV-1 strain HFEM): < 10 nM; EC50 ([6]; Human alphaherpesvirus 1, HSV-1 strain McIntyre): < 10 nM; EC50 ([6]; Human alphaherpesvirus 1, HSV-1 strain Patton): 10 nM; minimal effective concentration ([6]; Human alphaherpesvirus 1, HFEM, Patton, 2931 and F-strain HSV-1, read-out: concentration at which HSV-1 strains are affected): 0.01 µM; MNTC [7]: > 10 µM
O=c1ccn([C@@H]2O[C@H](CO)[C@@H](O)[C@@H]2F)c(=O)[nH]1 [Va] | > 10 µg/mL | < 90% | < 90% | 99 to 99.9% | 99 to 99.9% | > 10 µg/mL | –
Cc1cn([C@@H]2O[C@H](CO)[C@@H](O)[C@@H]2O)c(=O)[nH]c1=O [Ara-T] | – | – | – | – | – | – | activity against equine herpesvirus (equine herpesvirus): active; activity against HSV type 1 (HSV type 1): active; activity against HSV type 2 (HSV type 2): active
O=c1ccn([C@@H]2O[C@H](CO)[C@@H](O)[C@@H]2O)c(=O)[nH]1 [ara-U, 1-β-D-arabinofuranosyluracil] | – | – | – | – | – | – | anti-viral activity (anti-viral): devoid of anti-viral or anti-cancer activity
Nc1nc(=O)n([C@@H]2O[C@H](CO)[C@@H](O)[C@@H]2F)cc1F [IVb, 1-(2-deoxy-2-fluoro-β-D-arabinofuranosyl)-5-fluorocytosine] | 0.4 µg/mL (≈ 1.52 µM) | < 90% | 90 to 99% | 99 to 99.9% | 99.9 to 100% | 0.5 µg/mL (≈ 1.9 µM) | –
Nc1nc(=O)n([C@@H]2O[C@H](CO)[C@@H](O)[C@@H]2F)cc1Br [IVd, 1-(2-deoxy-2-fluoro-β-D-arabinofuranosyl)-5-bromocytosine] | > 10 µg/mL | < 90% | 90 to 99% | 99 to 99.9% | 100% | ~10 µg/mL (≈ 30.9 µM) | –
O=c1[nH]c(=O)n([C@@H]2O[C@H](CO)[C@@H](O)[C@@H]2F)cc1Cl [Vc, 1-(2-deoxy-2-fluoro-β-D-arabinofuranosyl)-5-chlorouracil] | 3.4 µg/mL (≈ 12.1 µM) | < 90% | < 90% | < 90% | 100% | 1.4 µg/mL (≈ 4.99 µM) | –
Cc1cn([C@@H]2O[C@H](CO)[C@@H](O)[C@@H]2O)c(=O)nc1N [5-Methyl-ara-C] | – | – | – | – | – | – | activity against herpesvirus infected cells [8]: active
Nc1nc(=O)n([C@@H]2O[C@H](CO)[C@@H](O)[C@@H]2F)cc1Cl [IVc, 1-(2-deoxy-2-fluoro-β-D-arabinofuranosyl)-5-chlorocytosine] | ~1 µg/mL (≈ 3.58 µM) | < 90% | < 90% | < 90% | 99.9 to 100% | 1.4 µg/mL (≈ 5.01 µM) | –
Nc1ccn([C@@H]2O[C@H](CO)[C@@H](O)[C@@H]2F)c(=O)n1 [IVa, 1-(2-deoxy-2-fluoro-β-D-arabinofuranosyl)cytosine, reference compound] | 0.05 µg/mL (≈ 0.204 µM) | < 90% | 90 to 99% | 90 to 99% | 99.9 to 100% | 0.05 µg/mL (≈ 0.204 µM) | activity at 100 µg/mL [5]: 100%
O=c1[nH]c(=O)n([C@@H]2O[C@H](CO)[C@@H](O)[C@@H]2F)cc1F [Vb, 1-(2-deoxy-2-fluoro-β-D-arabinofuranosyl)-5-fluorouracil] | 0.7 µg/mL (≈ 2.65 µM) | < 90% | 99 to 99.9% | 100% | 100% | 1 µg/mL (≈ 3.79 µM) | –
Nc1nc(=O)n([C@H]2C[C@H](O)[C@@H](CO)O2)cc1Br [5-Bromo-2'-deoxycytidine] | – | – | – | – | – | – | inhibition of HSV replication [9]: as effectively as their corresponding deoxyuridine analogs
O=c1[nH]c(=O)n([C@@H]2O[C@H](CO)[C@@H](O)[C@@H]2F)cc1Br [Vd, 1-(2-deoxy-2-fluoro-β-D-arabinofuranosyl)-5-bromouracil] | 1.6 µg/mL (≈ 4.92 µM) | < 90% | < 90% | 99 to 99.9% | 100% | 0.9 µg/mL (≈ 2.77 µM) | –
O=c1[nH]c(=O)n([C@@H]2O[C@H](CO)[C@@H](O)[C@@H]2F)cc1I [Ve, 1-(2-deoxy-2-fluoro-β-D-arabinofuranosyl)-5-iodouracil] | 0.8 µg/mL (≈ 2.15 µM) | < 90% | 90 to 99% | 99.9 to 100% | 100% | 0.9 µg/mL (≈ 2.42 µM) | –
Nc1nc(=O)n([C@H]2C[C@H](O)[C@@H](CO)O2)cc1I [5-iodo-2'-deoxycytidine] | – | – | – | – | – | – | inhibition of HSV replication [9]: as effectively as their corresponding deoxyuridine analogs
Nc1ccn([C@@H]2O[C@H](CO)[C@@H](O)[C@@H]2O)c(=O)n1 [ara-C, 1-β-D-Arabinofuranosylcytosine] | – | – | – | – | – | – | inhibition of multiplication of several DNA virus (several DNA virus): inhibits the multiplication of several DNA virus in cell culture; therapeutic to toxic ratio (herpes infections): unity
